Laboratory results as given in PubChem BioAssay AID256 (DTP/NCI, 2004).
Where “and” joins values, the source holds several entries; their conditions need not be identical. Identical values can stand only once. Inconclusive results and toxic doses are left out. Rule for the calls: active = survival T/C of 150% or more; inactive = T/C below 125% in these data.

Test system: CD2F1 mice, L1210 leukemia ip, survival T/C
Experiment: NCI In Vivo Anticancer Drug Screen. Data for tumor model L1210 Leukemia (intraperitoneal) in CD2F1 (CDF1) mice
Settings: higher = longer survival
Procedure, shortened: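 Compound-dosed mice with transplantable tumor versus matched vehicle controls; endpoint ratio T/C reported.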

[1] = endpoint: mean survival time, dose: 100.0 mg/kg/injection, schedule: Q01DX001 (ip), vehicle: saline with Tween-80
[2] = endpoint: mean survival time, dose: 200.0 mg/kg/injection, schedule: Q01DX001 (ip), vehicle: saline with Tween-80
[3] = endpoint: mean survival time, dose: 400.0 mg/kg/injection, schedule: Q01DX001 (ip), vehicle: saline with Tween-80
[4] = endpoint: mean survival time, dose: 100.0 mg/kg/injection, schedule: Q01DX009 (ip), vehicle: saline with Tween-80
[5] = endpoint: mean survival time, dose: 100.0 mg/kg/injection, schedule: Q04DX003 (ip), vehicle: saline with Tween-80
[6] = endpoint: mean survival time, dose: 200.0 mg/kg/injection, schedule: Q01DX009 (ip), vehicle: saline with Tween-80
[7] = endpoint: mean survival time, dose: 200.0 mg/kg/injection, schedule: Q04DX003 (ip), vehicle: saline with Tween-80
[8] = endpoint: mean survival time, dose: 400.0 mg/kg/injection, schedule: Q04DX003 (ip), vehicle: saline with Tween-80
[9] = endpoint: mean survival time, dose: 12.5 mg/kg/injection, schedule: Q01DX009 (ip), vehicle: saline with Tween-80

Measured: T/C

Nc1nc2c(c(=O)[nH]1)N(Cc1c[nH]c(=O)[nH]c1=O)C(CNc1ccc(C(=O)NC(CCC(=O)O)C(=O)O)cc1)CN2 (stereo unspecified)
inactive: [1] 101 % of control | [2] 92 % of control | [3] 101 % of control

CC1(C)CCCC2(C)CC/C(=N\NC(N)=O)C=C12 (stereo unspecified)
inactive: [4] 93 % of control | [5] 95 % of control | [6] 89 % of control | [7] 96 % of control | endpoint: mean survival time, dose: 400.0 mg/kg/injection, schedule: Q01DX009 (ip), vehicle: saline with Tween-80 88 % of control | [8] 96 % of control

O=C1c2ccccc2C(=O)c2c(NCCCNCCO)ccc(NCCCNCCO)c21
inactive: [9] 104 % of control | endpoint: mean survival time, dose: 25.0 mg/kg/injection, schedule: Q01DX009 (ip), vehicle: saline with Tween-80 96 % of control | endpoint: mean survival time, dose: 50.0 mg/kg/injection, schedule: Q01DX009 (ip), vehicle: saline with Tween-80 102 % of control

C[N+]12CC3C(O)CC1CCC32 (stereo unspecified)
inactive: endpoint: mean survival time, dose: 12.0 mg/kg/injection, schedule: Q01DX001 (ip), vehicle: saline 97 % of control | endpoint: mean survival time, dose: 12.0 mg/kg/injection, schedule: Q01DX009 (ip), vehicle: saline 96 % of control | endpoint: mean survival time, dose: 25.0 mg/kg/injection, schedule: Q01DX001 (ip), vehicle: saline 96 % of control | endpoint: mean survival time, dose: 25.0 mg/kg/injection, schedule: Q01DX009 (ip), vehicle: saline 98 % of control | endpoint: mean survival time, dose: 50.0 mg/kg/injection, schedule: Q01DX001 (ip), vehicle: saline 97 % of control | endpoint: mean survival time, dose: 50.0 mg/kg/injection, schedule: Q01DX009 (ip), vehicle: saline 93 % of control

COc1ccc(/C=N\NC(=O)CNC(=O)Nc2cccc(C(F)(F)F)c2)cc1OC
inactive: [9] 87 % of control | [4] 96 % of control | [6] 96 % of control

O=C(Nc1ccccc1)Nc1ccccc1C(=O)O
inactive: [1] 100 % of control | [2] 95 % of control | [3] 94 % of control

CCC1([N+](=O)[O-])COC(c2ccc(Cl)cc2)OC1 (stereo unspecified)
inactive: endpoint: mean survival time, dose: 100.0 mg/kg/injection, schedule: Q01DX001 (ip), vehicle: Klucel (hydroxypropylcellulose) (HPC) 104 % of control | endpoint: mean survival time, dose: 200.0 mg/kg/injection, schedule: Q01DX001 (ip), vehicle: Klucel (hydroxypropylcellulose) (HPC) 86 % of control | endpoint: mean survival time, dose: 400.0 mg/kg/injection, schedule: Q01DX001 (ip), vehicle: Klucel (hydroxypropylcellulose) (HPC) 111 % of control

C=C(Cl)CN(CCCC(=O)O)c1ccccc1
inactive: endpoint: mean survival time, dose: 25.0 mg/kg/injection, schedule: Q01DX009 (ip), vehicle: other 95 % of control | endpoint: mean survival time, dose: 50.0 mg/kg/injection, schedule: Q01DX009 (ip), vehicle: other 89 % of control | endpoint: mean survival time, dose: 100.0 mg/kg/injection, schedule: Q01DX009 (ip), vehicle: other 97 % of control

CCCCCCCCCCCCCCCCS(=O)CC(O)COC(=O)c1ccc(C(=O)OCC(O)CS(=O)CCCCCCCCCCCCCCCC)cc1 (stereo unspecified)
inactive: endpoint: mean survival time, dose: 12.5 mg/kg/injection, schedule: Q01DX009 (ip), vehicle: saline + Tween-80 + alcohol 96 % of control | endpoint: mean survival time, dose: 12.5 mg/kg/injection, schedule: Q01DX009 (ip), vehicle: saline + alcohol 91 % of control | endpoint: mean survival time, dose: 25.0 mg/kg/injection, schedule: Q01DX009 (ip), vehicle: saline + Tween-80 + alcohol 88 % of control | endpoint: mean survival time, dose: 25.0 mg/kg/injection, schedule: Q01DX009 (ip), vehicle: saline + alcohol 105 % of control | endpoint: mean survival time, dose: 50.0 mg/kg/injection, schedule: Q01DX009 (ip), vehicle: saline + Tween-80 + alcohol 90 % of control | endpoint: mean survival time, dose: 50.0 mg/kg/injection, schedule: Q01DX009 (ip), vehicle: saline + alcohol 105 % of control | endpoint: mean survival time, dose: 100.0 mg/kg/injection, schedule: Q01DX009 (ip), vehicle: saline + Tween-80 + alcohol 107 % of control | endpoint: mean survival time, dose: 100.0 mg/kg/injection, schedule: Q01DX009 (ip), vehicle: saline + alcohol 91 % of control | endpoint: mean survival time, dose: 200.0 mg/kg/injection, schedule: Q01DX009 (ip), vehicle: saline + Tween-80 + alcohol 107 % of control | endpoint: mean survival time, dose: 200.0 mg/kg/injection, schedule: Q01DX009 (ip), vehicle: saline + alcohol 97 % of control | endpoint: mean survival time, dose: 400.0 mg/kg/injection, schedule: Q01DX009 (ip), vehicle: saline + alcohol 105 % of control

O=S(=O)(O)C1=CC(=N\Cl)/C=CC/1=N/Cl
inactive: endpoint: median survival time, dose: 50.0 mg/kg/injection, schedule: Q01DX009 (ip), vehicle: saline with Tween-80 110 % of control | endpoint: median survival time, dose: 100.0 mg/kg/injection, schedule: Q01DX009 (ip), vehicle: saline with Tween-80 119 % of control | endpoint: median survival time, dose: 200.0 mg/kg/injection, schedule: Q01DX009 (ip), vehicle: saline with Tween-80 108 % of control | endpoint: median survival time, dose: 400.0 mg/kg/injection, schedule: Q01DX009 (ip), vehicle: saline with Tween-80 120 % of control

CC(=O)C1C(c2ccccc2)=C(c2ccccc2)c2ccccc21 (stereo unspecified)
inactive: [1] 88 % of control | [2] 92 % of control | [3] 92 % of control

O=C(CN1CCCCC1)NC(=O)NC1=C(N2CCCCC2)C(=O)c2ccccc2C1=O
inactive: endpoint: mean survival time, dose: 100.0 mg/kg/injection, schedule: Q01DX001 (ip), vehicle: other 97 % of control | endpoint: mean survival time, dose: 200.0 mg/kg/injection, schedule: Q01DX001 (ip), vehicle: other 101 % of control | endpoint: mean survival time, dose: 400.0 mg/kg/injection, schedule: Q01DX001 (ip), vehicle: other 95 % of control

CCN1CC2c3cc(OC)c(OC)cc3CC(c3ccccc3)C2C1 (stereo unspecified)
inactive: endpoint: mean survival time, dose: 12.5 mg/kg/injection, schedule: Q04DX003 (ip), vehicle: saline with Tween-80 108 % of control | endpoint: mean survival time, dose: 25.0 mg/kg/injection, schedule: Q04DX003 (ip), vehicle: saline with Tween-80 104 % of control | endpoint: mean survival time, dose: 50.0 mg/kg/injection, schedule: Q04DX003 (ip), vehicle: saline with Tween-80 92 % of control

[Pt+4].[c-]1ccccc1C1CCCC[N-]1.[c-]1ccccc1C1CCCC[N-]1 (stereo unspecified)
inactive: endpoint: median survival time, dose: 3.12 mg/kg/injection, schedule: Q04DX003 (ip), vehicle: saline 107 % of control | endpoint: median survival time, dose: 6.25 mg/kg/injection, schedule: Q04DX003 (ip), vehicle: saline 107 % of control | endpoint: median survival time, dose: 12.5 mg/kg/injection, schedule: Q04DX003 (ip), vehicle: saline 103 % of control | endpoint: median survival time, dose: 25.0 mg/kg/injection, schedule: Q04DX003 (ip), vehicle: saline 103 % of control | endpoint: median survival time, dose: 50.0 mg/kg/injection, schedule: Q04DX003 (ip), vehicle: saline 107 % of control | endpoint: median survival time, dose: 100.0 mg/kg/injection, schedule: Q04DX003 (ip), vehicle: saline 103 % of control | endpoint: median survival time, dose: 200.0 mg/kg/injection, schedule: Q04DX003 (ip), vehicle: saline 103 % of control

CC(=O)c1ccc2c3c(ccc([N+](=O)[O-])c13)CC2
inactive: [4] 94 % of control | [5] 100 % of control and 98 % of control | [7] 100 % of control and 98 % of control | [8] 98 % of control and 101 % of control

CNC(C)COc1ccccc1 (stereo unspecified)
inactive: [5] 86 % of control
